The target of one assay is T1, human LTA4 hydrolase (Homo sapiens, UniProt P09960).
T1 sequence (P09960 1-611): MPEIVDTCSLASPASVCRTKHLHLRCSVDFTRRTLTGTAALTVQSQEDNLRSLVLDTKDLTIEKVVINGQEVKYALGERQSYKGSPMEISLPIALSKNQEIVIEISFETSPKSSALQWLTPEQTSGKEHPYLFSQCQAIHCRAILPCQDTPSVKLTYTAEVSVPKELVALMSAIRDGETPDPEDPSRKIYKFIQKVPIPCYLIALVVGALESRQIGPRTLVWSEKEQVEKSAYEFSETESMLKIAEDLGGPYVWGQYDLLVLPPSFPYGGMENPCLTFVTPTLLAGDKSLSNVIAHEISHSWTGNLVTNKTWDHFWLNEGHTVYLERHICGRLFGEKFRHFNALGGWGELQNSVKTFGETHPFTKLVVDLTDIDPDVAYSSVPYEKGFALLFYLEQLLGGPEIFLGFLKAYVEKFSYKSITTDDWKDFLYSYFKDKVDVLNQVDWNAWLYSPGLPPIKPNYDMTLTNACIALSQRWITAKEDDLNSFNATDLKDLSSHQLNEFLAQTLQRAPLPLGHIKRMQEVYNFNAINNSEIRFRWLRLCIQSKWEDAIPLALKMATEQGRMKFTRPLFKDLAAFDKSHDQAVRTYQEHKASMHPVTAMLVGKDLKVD
The assay is described as follows: LTA4H enzyme assay (cleavage of Arg-AMC, fluorescence). The assay is classed as biochemical. Particulars: LTA4H enzyme 1 nM, Arg-AMC substrate 50 μM, room temperature 1 h. On the procedure: Compounds are assessed for the ability to interact with human LTA4 hydrolase in an enzymatic assay that measures the ability of the enzyme to cleave the peptide bond of arginyl-aminomethylcoumarin (Arg-AMC). LTA4H Enzyme (1 nM final), Arg-AMC substrate (50 μM final), and compound are combined in a reaction buffer (50 mM Tris-HCl (pH 7.5), 100 mM KCl, 0.5% bovine serum albumin) at room temperature for 1 h. The formation of product is assessed by measuring the fluorescence of aminomethylcoumarin product (excitation wavelength 380 nm/emission wavelength 460 nm).

For assay [1], the system named is LTB4 production in human whole blood. Kind of assay: LTB4 production inhibition assay in human whole blood (calcimycin-stimulated). Particulars: heparinized human whole blood, 15 min 37° C., calcimycin 20 μM 30 min, plasma LTB4 by HTRF. It is filed as cell-based. As to the method:
Compounds of the invention are additionally tested in a human whole blood assay to determine their ability to inhibit the synthesis of LTB4 in a cellular system. Compounds are combined with heparinized human whole blood and incubated for 15 minutes at 37° C. Calcimycin (20 μM final, prepared in phosphate-buffered saline, pH 7.4) is then added and the mixture is incubated for another 30 minutes at 37° C. The samples are centrifuged for 5 min at low speed (1500×g) and the plasma layer is removed. Plasma LTB4 concentrations are then measured using an antibody-based homogenous time-resolved fluorescence method (CisBio, Bedford, Mass.).
(Time-resolved FRET reads energy transfer from a long-lived donor to a nearby acceptor.)

Structures are written as SMILES. Bounds are passed on as bounds.

The term IC50 denotes the midpoint of a concentration-inhibition curve. For `Cn1nc(COc2ccc(Oc3ccc(-c4ccn[nH]4)cc3)cc2)cc1-c1ccco1` [Example 57, 5-(2-furyl)-1-methyl-3-({4-[4-(1H-pyrazol-5-yl)phenoxy]phenoxy}methyl)-1H-pyrazole], the 50% inhibitory concentration (IC50) at human LTA4 hydrolase was 11 nM; in assay [1], ≥ 5000 nM.

For the molecule `c1cc(-c2ccc(Oc3ccc(O[C@@H]4CCOC4)cc3)cc2)[nH]n1` [Example 4, 5-(4-{4-[(3R)-tetrahydrofuran-3-yloxy]phenoxy}phenyl)-1H-pyrazole], the figures for the IC50 (on human LTA4 hydrolase; in assay [1]) were 3.9 nM and 1040 nM, respectively.

As for `c1ccc2[nH]c(NCCOc3ccc(Oc4ccc(-c5ccn[nH]5)cc4)cc3)nc2c1` [Example 41, N-(2-{4-[4-(1H-pyrazol-5-yl)phenoxy]phenoxy}ethyl)-1H-benzimidazol-2-amine], the IC50 against human LTA4 hydrolase amounted to 0.2 nM; in assay [1], 673 nM.

As for `CN1CC(COc2ccc(Oc3ccc(-c4ccn[nH]4)cc3)cc2)CC1=O` (centres unmarked) [Example 7, 1-methyl-4-({4-[4-(1H-pyrazol-5-yl)phenoxy]phenoxy}methyl)pyrrolidin-2-one], the figures for the half-inhibitory concentration (IC50) (on human LTA4 hydrolase; in assay [1]) were 0.5 nM and 280 nM, respectively.

Regarding `Cc1ncoc1COc1ccc(Oc2ccc(-c3ccn[nH]3)cc2)cc1` [Example 74, 4-methyl-5-({4-[4-(1H-pyrazol-5-yl)phenoxy]phenoxy}methyl)-1,3-oxazole], the concentration for half-maximal inhibition (IC50) against human LTA4 hydrolase was determined as 17.9 nM; in assay [1], 2550 nM.

On to `O=C1CC[C@@H](Oc2ccc(Oc3ccc(-c4cc[nH]n4)cc3)cc2)CN1` [Example 14, (5R)-5-{4-[4-(1H-pyrazol-3-yl)phenoxy]phenoxy}piperidin-2-one], for which the IC50 is 0.3 nM on human LTA4 hydrolase and 178 nM in assay [1].

Turning to `c1cc(-c2ccc(Oc3ccc(OCC4CCCOC4)cc3)cc2)[nH]n1` (centres unmarked) [Example 83, 5-{4-[4-(tetrahydro-2H-pyran-3-ylmethoxy)phenoxy]phenyl}-1H-pyrazole], the 50% inhibitory concentration (IC50) against human LTA4 hydrolase came out at 2.9 nM; in assay [1] it was 1740 nM.

In the case of `Cn1ccc(COc2ccc(Oc3ccc(-c4ccn[nH]4)cc3)cc2)n1` [Example 65, 1-methyl-3-({4-[4-(1H-pyrazol-5-yl)phenoxy]phenoxy}methyl)-1H-pyrazole], the concentration for half-maximal inhibition (IC50) was 12.9 nM against human LTA4 hydrolase and ≥ 5000 nM in assay [1].

For the molecule `O=C1CC[C@@H](COc2ccc(Oc3ccc(-c4ccn[nH]4)cc3)cc2)N1` [Example 2, (5S)-5-({4-[4-(1H-pyrazol-5-yl)phenoxy]phenoxy}methyl)pyrrolidin-2-one], the IC50 was found to be 0.2 nM against human LTA4 hydrolase and 163 nM in assay [1].

For the molecule `O=C1CC[C@@H](Oc2ccc(Oc3ccc(-c4ccn[nH]4)nc3)cc2)CN1` [Example 95, (5R)-5-(4-{[6-(1H-pyrazol-5-yl)pyridin-3-yl]oxy}phenoxy)piperidin-2-one], the IC50 on human LTA4 hydrolase was found to be 1.6 nM; in assay [1], 367 nM.

`c1cc(-c2ccc(Oc3ccc(OCc4ccc5nccn5c4)cc3)cc2)[nH]n1` [Example 76, 6-({4-[4-(1H-pyrazol-5-yl)phenoxy]phenoxy}methyl)imidazo[1,2-a]pyridine]: the IC50 against human LTA4 hydrolase was 0.9 nM; in assay [1], 1420 nM.

As for `c1cc(-c2ccc(Oc3ccc(OCc4ccsc4)cc3)cc2)[nH]n1` [Example 69, 5-{4-[4-(3-thienylmethoxy)phenoxy]phenyl}-1H-pyrazole], the half-maximal inhibitory concentration (IC50) at human LTA4 hydrolase is 65.3 nM; in assay [1], ≥ 5000 nM.

For the molecule `c1coc(COc2ccc(Oc3ccc(-c4ccn[nH]4)cc3)cc2)c1` [Example 30, 5-{4-[4-(2-furylmethoxy)phenoxy]phenyl}-1H-pyrazole], the IC50 against human LTA4 hydrolase is 65.6 nM; in assay [1] it was ≥ 5000 nM.

Turning to `Cn1nccc1COc1ccc(Oc2ccc(-c3ccn[nH]3)cc2)cc1` [Example 61, 1-methyl-5-({4-[4-(1H-pyrazol-5-yl)phenoxy]phenoxy}methyl)-1H-pyrazole], the 50% inhibitory concentration (IC50) at human LTA4 hydrolase came out at 1.4 nM; in assay [1], 1120 nM.

For `c1cc(-c2ccc(Oc3ccc(OCc4ccc5ncsc5c4)cc3)cc2)[nH]n1` [Example 71, 6-({4-[4-(1H-pyrazol-5-yl)phenoxy]phenoxy}methyl)-1,3-benzothiazole], the IC50 against human LTA4 hydrolase is 59.5 nM; in assay [1], ≥ 5000 nM.

In the case of `c1cc(-c2ccc(Oc3ccc(OCC4CCOCC4)cc3)cc2)[nH]n1` [Example 84, 5-{4-[4-(tetrahydro-2H-pyran-4-ylmethoxy)phenoxy]phenyl}-1H-pyrazole], the IC50 came to 4.6 nM against human LTA4 hydrolase and 1460 nM in assay [1].

On to `c1cc(-c2ccc(Oc3ccc(O[C@H]4CCOC4)cc3)cc2)[nH]n1` [Example 90, 5-(4-{4-[(3S)-tetrahydrofuran-3-yloxy]phenoxy}phenyl)-1H-pyrazole], for which the IC50 was 2.4 nM against human LTA4 hydrolase and 777 nM in assay [1].

`O=C1CC[C@@H](Oc2ccc(Oc3ccc(-c4ccn[nH]4)cc3)cn2)CN1` [Example 19, (5R)-5-({5-[4-(1H-pyrazol-5-yl)phenoxy]pyridin-2-yl}oxy)piperidin-2-one]: the IC50 came out at 1.9 nM at human LTA4 hydrolase and 554 nM in assay [1].

`c1cc(-c2ccc(Oc3ccc(OCc4ccoc4)cc3)cc2)[nH]n1` [Example 63, 5-{4-[4-(3-furylmethoxy)phenoxy]phenyl}-1H-pyrazole]: the half-maximal inhibitory concentration (IC50) against human LTA4 hydrolase was 52.9 nM; in assay [1] it was ≥ 5000 nM.

Consider `c1ccc(CCOc2ccc(Oc3ccc(-c4ccn[nH]4)cc3)cc2)nc1` [Example 33, 2-(2-{4-[4-(1H-pyrazol-5-yl)phenoxy]phenoxy}ethyl)pyridine], for which the 50% inhibitory concentration (IC50) was 5.2 nM at human LTA4 hydrolase and 3360 nM in assay [1].

As for `c1ccn2cc(COc3ccc(Oc4ccc(-c5ccn[nH]5)cc4)cc3)nc2c1` [Example 53, 2-({4-[4-(1H-pyrazol-5-yl)phenoxy]phenoxy}methyl)imidazo[1,2-a]pyridine], the figures for the 50% inhibitory concentration (IC50) (at human LTA4 hydrolase; in assay [1]) were 3.7 nM and ≥ 5000 nM, respectively.

In the case of `c1cc(-c2ccc(Oc3ccc(OCc4ccc5[nH]cnc5c4)cc3)cc2)[nH]n1` [Example 81, 5-({4-[4-(1H-pyrazol-5-yl)phenoxy]phenoxy}methyl)-1H-benzimidazole], the IC50 was 14.2 nM on human LTA4 hydrolase and ≥ 5000 nM in assay [1].

As for `c1ccc2[nH]c(CCOc3ccc(Oc4ccc(-c5ccn[nH]5)cc4)cc3)nc2c1` [Example 45, 2-(2-{4-[4-(1H-pyrazol-5-yl)phenoxy]phenoxy}ethyl)-1H-benzimidazole], the concentration for half-maximal inhibition (IC50) at human LTA4 hydrolase was 1.7 nM; in assay [1] it was ≥ 5000 nM.

Take `C[C@H](Oc1ccc(Oc2ccc(-c3ccn[nH]3)cc2)cc1)c1ccccn1` [Example 58, 2-[(1S)-1-{4-[4-(1H-pyrazol-5-yl)phenoxy]phenoxy}ethyl]pyridine]: the IC50 was 44 nM at human LTA4 hydrolase and ≥ 5000 nM in assay [1].

With `c1cc(-c2ccc(Oc3ccc(OCc4cncs4)cc3)cc2)[nH]n1` [Example 70, 5-({4-[4-(1H-pyrazol-5-yl)phenoxy]phenoxy}methyl)-1,3-thiazole], the IC50 is 4.9 nM against human LTA4 hydrolase and 2390 nM in assay [1].

In the case of `c1cc(-c2ccc(Oc3ccc(OCC4CCCO4)cc3)cc2)[nH]n1` (centres unmarked) [Example 5, 5-{4-[4-(tetrahydrofuran-2-ylmethoxy)phenoxy]phenyl}-1H-pyrazole], the IC50 at human LTA4 hydrolase was found to be 6.8 nM; in assay [1], 1350 nM.

`CC(Oc1ccc(Oc2ccc(-c3ccn[nH]3)cc2)cc1)c1ccncc1` (centres unmarked) [Example 48, 4-(1-{4-[4-(1H-pyrazol-5-yl)phenoxy]phenoxy}ethyl)pyridine]: the IC50 against human LTA4 hydrolase was 16.9 nM; in assay [1], 3920 nM.

Regarding `Cc1nc(COc2ccc(Oc3ccc(-c4ccn[nH]4)cc3)cc2)co1` [Example 60, 2-methyl-4-({4-[4-(1H-pyrazol-5-yl)phenoxy]phenoxy}methyl)-1,3-oxazole], the results for the IC50 (against human LTA4 hydrolase; in assay [1]) were 3.9 nM and ≥ 5000 nM, respectively.

On to `c1ccc2sc(COc3ccc(Oc4ccc(-c5ccn[nH]5)cc4)cc3)nc2c1` [Example 64, 2-({4-[4-(1H-pyrazol-5-yl)phenoxy]phenoxy}methyl)-1,3-benzothiazole], for which the half-inhibitory concentration (IC50) against human LTA4 hydrolase was 44.2 nM; in assay [1], ≥ 5000 nM.

In the case of `O=C1NCC[C@@H]1Oc1ccc(Oc2ccc(-c3ccn[nH]3)cc2)cc1` [Example 9, (3S)-3-{4-[4-(1H-pyrazol-5-yl)phenoxy]phenoxy}pyrrolidin-2-one], the 50% inhibitory concentration (IC50) is 76.7 nM at human LTA4 hydrolase and ≥ 5000 nM in assay [1].

For the molecule `C[C@@H](Oc1ccc(Oc2ccc(-c3ccn[nH]3)cc2)cc1)c1ccccn1` [Example 59, 2-[(1R)-1-{4-[4-(1H-pyrazol-5-yl)phenoxy]phenoxy}ethyl]pyridine], the IC50 is 42.7 nM on human LTA4 hydrolase and ≥ 5000 nM in assay [1].
